Test results taken from patent publication US20150320723A1, “Use of Small Molecule Unfolder Protein Response Modulators to Treat Tumors With Active Sonic Hedgehog (SSH) Signaling Due To Smoothened (SMO) Mutation” (ST. JUDE CHILDREN'S RESEARCH HOSPITAL, priority 2013, published 2015).
Entries after “also recorded” stand apart in the source; their conditions may differ. Residues, ends and D or L forms follow the SMILES beside them. *: point of attachment. Cbz = O=C(OCc1ccccc1)*

Experiments:
[1] = system: unfolded protein response (UPR) in myeloma cells; conditions: cited from earlier work
[2] = system: oncogenic SmoM2 protein; experiment: Initial testing of compounds: SmoM2 protein stability in cultured mouse NIH3T3 cells; assay type: cell-based
From the text: The four ER stress/UPR modulating compounds listed below (abbreviated and commercial names in parentheses) destabilize oncogenic SmoM2 protein in cultured mouse NIH3T3 cells. • 1. 17-N-Allylamino-17-demethoxygeldanamycin (17-AAG, KOS-953,Tanespimycin), • 2. 17-Dimethylaminoethylamino-17-demethoxygeldanamycin (17-DMAG, KOS-1022, Alvespimycin), • 3. 4-(6,6-dimethyl-4-oxo-3-(trifluoromethyl)-4,5,6,7-tetrahydroindazol-1-yl)-2-((1r,4r)-4-hydroxycyclohexylamino)benzamide (SNX-2112) • 4. Eeyarestatin I (EerI).

[3] = cited from earlier work
[4] = system: wild type, C318A and M2 mSmo proteins; experiment: Temperature sensitivity analysis at 40° C. with the proteasome inhibitor MG132, western blot, NIH3T3 cells; assay type: cell-based, mouse
Method: Given that the bulk of mSmoC318A and mSmoM2 are ER-localized, it was reasoned that, like the active Drosophila mutants, they would be affected by induction of a thermal ER stress response. Thermal ER stress has been observed in mammalian cells cultured at 40° C. (Xu et al., 2011 [53]). Accordingly, it was observed induction of the ER stress response transcription factor CHOP in NIH3T3 cells incubated at this high temperature for 2-4 hours (FIG. 5C). To assess the effect of thermal ER stress on mSmo proteins, wild type, C318A or mSmoM2 was expressed in NIH3T3 cells cultured at 37° C., then shifted to 40° C. for 4 hours prior to whole-cell lysis (FIG. 5C′). […] (FIG. 5C′ lanes 3-6 compared to 1-2). This destabilization is the likely result of ER-associated protein degradation (ERAD), as the ER-resident forms of all three Smo variants were stabilized at 40° C. by the proteasome inhibitor MG132 (FIG. 5C′ white arrowhead, lanes 8, 10 and 12 compared to 7, 9 and 11). The post-ER form of wild type Smo was not altered by MG132 treatment (FIG. 5C′ black arrowhead, lanes 7-8).
For protein stability analysis in mammalian cells, ˜1×10^6NIH3T3 cells were transfected with 2 ug of wild type or mutant pcDNA3.1-amino expression vector (Carroll et al., 2012 [31]). For temperature sensitivity analysis, transfected cells were maintained at 37° C. for ˜44 hours, and then shifted to 40° C. for 4 hours prior to lysis. Whole-cell lysates were prepared in modified RIPA buffer (50 mM Tris-HCl, pH 7.4, 150 mM NaCl, 0.25% deoxycholic acid, 1% NP-40, 1 mM EDTA, 0.1% SDS, 0.5 mM DTT, and 1× PIC (Roche)) by rocking for 30 minutes at 4° C. as described (Nachtergaele et al., 2012 [62]). Cell extracts were cleared by centrifuging at 16,000×g at 4° C. for 45 minutes. Supernatants were collected and analyzed by SDS-Page and western blot using anti-GADD153/CHOP (B-3, SCBT) anti-Smo (E5, SCBT) and anti-tubulin (Cell Signaling) antibodies. […] Whole-cell lysates were prepared in modified RIPA buffer and analyzed as above.

SMILES: C=CCNC1=C2C[C@@H](C)C[C@H](OC)[C@H](O)[C@@H](C)/C=C(\C)[C@H](OC(N)=O)[C@@H](OC)/C=C\C=C(/C)C(=O)NC(=CC1=O)C2=O [17-AAG, 17-N-Allylamino-17-demethoxygeldanamycin]
- activation of the branches of the UPR [1]: capable of activating all three branches of the UPR
- effect on oncogenic SmoM2 protein [2]: destabilize

SMILES: CO[C@H]1/C=C\C=C(/C)C(=O)NC2=CC(=O)C(NCCN(C)C)=C(C[C@@H](C)C[C@H](OC)[C@H](O)[C@@H](C)/C=C(\C)[C@@H]1OC(N)=O)C2=O [17-DMAG, 17-Dimethylaminoethylamino-17-demethoxygeldanamycin]
- effect on oncogenic SmoM2 protein [2]: destabilize

SMILES: CC1(C)C(N(O)C(=O)Nc2ccc(Cl)cc2)N(c2ccc(Cl)cc2)C(=O)N1CC(=O)NN=CC=Cc1ccc([N+](=O)[O-])o1 (stereo not shown) [Eeyarestatin I, 3-(4-Chlorophenyl)-4-[[[(4-chlorophenyl)amino]carbonyl]hydroxyamino]-5,5-dimethyl-2-oxo-1-imidazolidineacetic acid 2-[3-(5-nitro-2-furanyl)-2-propen-1-ylidene]hydrazide]
- effect on oncogenic SmoM2 protein [2]: destabilize

SMILES: C/C=C(/C)C(=O)O[C@H]1C(C)=C2[C@H]([C@@H]1OC(=O)CCCCCCC)[C@@](C)(OC(C)=O)C[C@H](OC(=O)CCCCCCCCCCCNC(=O)C[C@H](N)C(=O)N[C@@H](CCC(=O)N[C@@H](CCC(=O)N[C@@H](CCC(=O)N[C@@H](CCC(=O)O)C(=O)O)C(=O)O)C(=O)O)C(=O)O)[C@@]1(O)[C@H]2OC(=O)[C@@]1(C)O [G-202]
- in vivo toxicity relative to thapsigargin [3]: significantly reduced

SMILES: CC(C)C[C@@H](C=O)NC(=O)[C@H](CC(C)C)NC(=O)[C@H](CC(C)C)NC(=O)OCc1ccccc1 [MG132] (Cbz-Leu-Leu-Leu-aldehyde)
- ER-resident forms of all three Smo variants (wild type, C318A, M2): protein stability ([4]; NIH3T3 cells shifted to 40° C. for 4 hours, MG132 treatment): stabilized
- post-ER form of wild type Smo ([4]; NIH3T3 cells shifted to 40° C., MG132 treatment): unaffected; also recorded: not altered
- destabilization of the ER-resident forms of wild type and both mutants at 40° C. ([4]; NIH3T3 cells shifted to 40° C., MG132 treatment (FIG. 5C' legend)): attenuated

SMILES: CC1(C)CC(=O)c2c(C(F)(F)F)nn(-c3ccc(C(N)=O)c(N[C@H]4CC[C@H](O)CC4)c3)c2C1 [SNX-2112, 4-(6,6-dimethyl-4-oxo-3-(trifluoromethyl)-4,5,6,7-tetrahydroindazol-1-yl)-2-((1r,4r)-4-hydroxycyclohexylamino)benzamide]
- effect on oncogenic SmoM2 protein [2]: destabilize

SMILES: C[C@@H]1C[C@H]2O[C@@H]2/C=C\C=C\C(=O)Cc2c(Cl)c(O)cc(O)c2C(=O)O1 [radicicol]
- activation of the branches of the UPR [1]: capable of activating all three branches of the UPR
